Active and inactive are the calls of the source.
Columns and labels:
[1] = target: T1, Corticotropin-releasing factor receptor 2/Corticotropin-releasing factor-binding protein (Homo sapiens, UniProt P24387+Q13324); experiment: Dose Response confirmation of uHTS hits for small molecule antagonists of the CRF-binding protein and CRF-R2 receptor complex.; type: functional; settings: read-out: IC50_Mean
T1 sequence (Q13324 whole entry): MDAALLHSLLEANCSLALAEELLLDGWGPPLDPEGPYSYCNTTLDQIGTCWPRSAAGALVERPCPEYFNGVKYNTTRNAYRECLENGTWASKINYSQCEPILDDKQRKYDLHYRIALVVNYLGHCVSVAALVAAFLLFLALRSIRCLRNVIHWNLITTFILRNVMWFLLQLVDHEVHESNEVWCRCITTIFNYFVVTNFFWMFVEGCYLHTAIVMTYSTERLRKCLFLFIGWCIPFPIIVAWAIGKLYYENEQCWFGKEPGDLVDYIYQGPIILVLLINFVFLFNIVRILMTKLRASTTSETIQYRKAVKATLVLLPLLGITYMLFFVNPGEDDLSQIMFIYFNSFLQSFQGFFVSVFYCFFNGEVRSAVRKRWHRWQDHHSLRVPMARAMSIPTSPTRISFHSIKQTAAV
T1 sequence (P24387 whole entry): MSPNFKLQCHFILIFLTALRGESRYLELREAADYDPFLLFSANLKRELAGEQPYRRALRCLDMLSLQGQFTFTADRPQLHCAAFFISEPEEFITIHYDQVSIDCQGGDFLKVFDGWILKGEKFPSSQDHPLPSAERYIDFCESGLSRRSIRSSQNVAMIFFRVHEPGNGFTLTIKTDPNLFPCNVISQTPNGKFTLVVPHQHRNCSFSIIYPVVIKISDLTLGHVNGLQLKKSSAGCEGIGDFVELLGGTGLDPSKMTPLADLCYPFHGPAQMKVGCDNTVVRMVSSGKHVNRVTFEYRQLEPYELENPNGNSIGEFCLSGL

[2] = target: T1, Corticotropin-releasing factor receptor 2/Corticotropin-releasing factor-binding protein; experiment: activators of CRF receptor 2 with binding protein – uHTS hits, confirmation (AID 602473); type: functional; settings: read-out: EC50_Mean
[3] = target: FAD-linked sulfhydryl oxidase ALR (Homo sapiens, UniProt P55789); experiment: ALR-catalysed DTT oxidation blockers – biochemical, H2O2 detection, luminescence, cherry-pick, dose response (AID 493248)
Cytochrome P450 2C9 = Cytochrome P450 2C9 (Homo sapiens, UniProt P11712)
Cytochrome P450 1A2 = target: T2, Cytochrome P450 1A2 (Homo sapiens, UniProt P05177);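 note: PubChem cytochrome P450 panel assay, CYP1A2 panel member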
T2 sequence (P05177 whole entry): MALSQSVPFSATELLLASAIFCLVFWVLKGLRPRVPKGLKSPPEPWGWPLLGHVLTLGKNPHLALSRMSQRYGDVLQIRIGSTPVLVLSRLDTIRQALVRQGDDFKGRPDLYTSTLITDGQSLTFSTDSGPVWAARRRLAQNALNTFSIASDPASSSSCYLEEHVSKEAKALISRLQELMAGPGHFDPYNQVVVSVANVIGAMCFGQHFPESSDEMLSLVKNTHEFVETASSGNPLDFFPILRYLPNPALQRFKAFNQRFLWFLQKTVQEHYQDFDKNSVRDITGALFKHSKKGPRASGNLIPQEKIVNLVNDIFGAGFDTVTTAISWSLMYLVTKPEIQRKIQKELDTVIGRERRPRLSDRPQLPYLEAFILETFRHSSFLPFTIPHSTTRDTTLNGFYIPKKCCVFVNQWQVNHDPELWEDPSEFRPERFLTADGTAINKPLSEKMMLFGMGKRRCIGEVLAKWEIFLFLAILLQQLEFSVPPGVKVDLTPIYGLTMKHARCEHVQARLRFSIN

[4] = target: T3, Rac GTPase-activating protein 1 (Homo sapiens, UniProt Q9H0H5); experiment: blockers of MgcRacGAP-driven Rac1 GTP hydrolysis – biochemical, ADP Hunter fluorescence, primary and confirmatory, confirmation (AID 624330); type: functional
T3 sequence (Q9H0H5 whole entry): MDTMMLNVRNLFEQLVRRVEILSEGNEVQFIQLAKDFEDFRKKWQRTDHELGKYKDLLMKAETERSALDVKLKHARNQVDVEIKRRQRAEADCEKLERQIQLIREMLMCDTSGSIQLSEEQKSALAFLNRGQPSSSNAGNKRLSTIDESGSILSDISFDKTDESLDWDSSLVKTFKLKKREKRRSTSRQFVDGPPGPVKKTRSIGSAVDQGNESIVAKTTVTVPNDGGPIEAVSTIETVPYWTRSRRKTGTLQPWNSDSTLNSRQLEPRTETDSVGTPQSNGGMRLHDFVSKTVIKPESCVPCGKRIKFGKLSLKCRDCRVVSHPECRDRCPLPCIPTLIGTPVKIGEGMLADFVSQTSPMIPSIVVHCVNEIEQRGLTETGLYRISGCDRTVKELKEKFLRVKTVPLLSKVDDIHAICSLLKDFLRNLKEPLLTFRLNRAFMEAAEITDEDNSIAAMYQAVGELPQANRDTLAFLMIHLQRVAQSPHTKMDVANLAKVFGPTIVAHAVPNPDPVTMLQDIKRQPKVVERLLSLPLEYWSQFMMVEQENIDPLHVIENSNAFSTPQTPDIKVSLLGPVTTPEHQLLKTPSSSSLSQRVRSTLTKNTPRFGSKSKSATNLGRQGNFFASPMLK

H4 = experiment: Luminescence Cell-Based Dose Response HTS to Identify Activators of 5'UTR Stem-Loop Driven Prion Protein mRNA Translation in H4 Neuroglioblastoma Cells. [Related pubchem assays: 1829 (Project Summary), 1814 (Primary HTS)]; type: functional; settings: Homo sapiens
[5] = Luminescence Cell-Based Dose Response HTS to Identify Inhibitors of 5'UTR Stem-Loop Driven Prion Protein mRNA Translation in H4 Neuroglioblastoma Cells. [Related pubchem assays: 1827 (Project Summary), 1813 (Primary HTS)]; type: functional
[6] = luciferase reporter signal suppression in cells – H4 neuroglioma cells, luminescence, dose response (AID 1990); type: functional, cell-based
[7] = alpha-synuclein stem-loop luciferase translation blockers – H4 neuroglioma cells, luminescence, confirmation (AID 1988); type: functional, cell-based

Cytochrome P450 2C9, sequence (P11712 whole entry): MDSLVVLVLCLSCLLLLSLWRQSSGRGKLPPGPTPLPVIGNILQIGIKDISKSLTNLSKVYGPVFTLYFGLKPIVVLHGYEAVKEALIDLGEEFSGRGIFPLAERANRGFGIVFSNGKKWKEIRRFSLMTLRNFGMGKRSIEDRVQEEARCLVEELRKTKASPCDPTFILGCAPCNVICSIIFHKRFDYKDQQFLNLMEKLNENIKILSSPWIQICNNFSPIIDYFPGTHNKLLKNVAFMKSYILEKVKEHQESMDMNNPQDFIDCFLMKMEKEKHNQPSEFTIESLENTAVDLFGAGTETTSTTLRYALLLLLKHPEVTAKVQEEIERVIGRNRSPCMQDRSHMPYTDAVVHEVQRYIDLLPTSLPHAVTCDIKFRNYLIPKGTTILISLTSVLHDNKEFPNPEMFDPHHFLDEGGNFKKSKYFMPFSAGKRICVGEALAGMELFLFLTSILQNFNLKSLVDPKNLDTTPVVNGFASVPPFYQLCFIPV
FAD-linked sulfhydryl oxidase ALR, sequence (P55789 whole entry): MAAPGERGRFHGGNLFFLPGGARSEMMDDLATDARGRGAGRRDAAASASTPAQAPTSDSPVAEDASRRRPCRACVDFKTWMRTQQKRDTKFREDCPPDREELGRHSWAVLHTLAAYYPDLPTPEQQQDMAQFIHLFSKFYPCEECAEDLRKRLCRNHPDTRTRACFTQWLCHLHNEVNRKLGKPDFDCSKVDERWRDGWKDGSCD

**Q.** With `O=C(c1ccc(F)cc1)C1CCN(Cc2ccccc2F)CC1` as the molecule, how does the IC50 [1] read?
**A.** Its IC50 is > 47.1 µM (inactive).

**Q.** And the EC50 [2]?
**A.** The EC50 was > 53 µM (inactive).

**Q.** Which AC50 [3] does the source give for `Cc1ccn2c(NC3CCCCC3)c(C(C)C)nc2c1` here?
**A.** Its AC50 is 2.82 µM (active).

**Q.** With `COc1ccc(CNC(=O)CN(C)S(=O)(=O)c2ccc3c(c2)n(C)c(=O)c(=O)n3C)cc1` as the molecule, how does the IC50 [1] read?
**A.** The IC50 was > 47.1 µM (inactive).

**Q.** What about the EC50 [2] of the same molecule?
**A.** The EC50 was > 53 µM (inactive).

**Q.** Which IC50 [1] does the source give for `O=C(COC(=O)c1cc2ccccc2cc1O)NC1CCCCC1` here?
**A.** The IC50 was > 47.1 µM (inactive).

**Q.** And the EC50 [2]?
**A.** The EC50 was > 53 µM (inactive).

**Q.** With `CCc1cc(C(=O)OC)c(NC(=O)CCCC(=O)O)s1` as the molecule, how does the AC50 (Cytochrome P450 2C9) read?
**A.** The AC50 was 28.2 µM (inconclusive).

**Q.** What about the AC50 (Cytochrome P450 1A2) of the same molecule?
**A.** Its AC50 is 25.1 µM (inconclusive).

**Q.** With `O=C(O)CCNC(=O)OCC1c2ccccc2-c2ccccc21` as the molecule, how does the IC50 [1] read?
**A.** Its IC50 is > 47.1 µM (inactive).

**Q.** And the EC50 [2]?
**A.** Its EC50 is > 53 µM (inactive).

**Q.** With `CC(C)(C)OC(=O)N1CCN(c2ccc(CNC(=O)c3ccc(Cl)cc3)cc2)CC1` as the molecule, how does the IC50 [1] read?
**A.** Its IC50 is > 47.1 µM (inactive).

**Q.** What about the EC50 [2] of the same molecule?
**A.** Its EC50 is > 53 µM (inactive).

**Q.** For `COCCCNc1nc(S)nc2cc(OC)c(OC)cc12`, which IC50 [4] is on record?
**A.** Its IC50 is 69.7 µM (active).

**Q.** With `CCN(Cc1ccncc1)Cc1ccc(OC)c(OC)c1` as the molecule, how does the IC50 [4] read?
**A.** The IC50 was 190 µM (active).

**Q.** What does the source list for `Cc1cccc(N(C(=O)c2sc(C)nc2C)C(C(=O)NCC2CCCO2)c2ccccc2)c1` (stereo unspecified)?
**A.** IC50 [1]: > 47.1 µM (inactive); EC50 [2]: > 53 µM (inactive)

**Q.** With `CCCCCN(C(=O)CCC(=O)OCC(=O)c1c(C)cc(C)cc1C)c1c(N)n(CCCC)c(=O)[nH]c1=O` as the molecule, how does the IC50 [1] read?
**A.** The IC50 was > 47.1 µM (inactive).

**Q.** And the EC50 [2]?
**A.** Its EC50 is > 53 µM (inactive).

**Q.** With `COc1cc2ccccc2cc1C(=O)Nc1ccc(N2CCN(C)CC2)cc1` as the molecule, how does the EC50 (H4) read?
**A.** Its EC50 is > 120 µM (not active).

**Q.** Which IC50 [1] does the source give for `COc1ccc(CNC(=O)Nc2cccs2)cc1OC` here?
**A.** The IC50 was > 47.1 µM (inactive).

**Q.** What about the AC50 (Cytochrome P450 2C9) of the same molecule?
**A.** The AC50 was 39.8 µM (inconclusive).

**Q.** And the EC50 [2]?
**A.** Its EC50 is > 53 µM (inactive).

**Q.** Which results are given for `CCc1ccc(/C=N/NC(=O)c2cc(C3CC3)nc3ccc(Br)cc23)s1`?
**A.** EC50 [5]: 9.75 µM (active); EC50 [6]: > 120 µM (not active); EC50 [7]: 6.9 µM (active)

**Q.** With `CCCOc1ccc(N2C(=O)CC(N3CCC(c4nc5ccccc5o4)CC3)C2=O)cc1` (stereo unspecified) as the molecule, how does the EC50 [5] read?
**A.** Its EC50 is > 60 µM (not active).

**Q.** And the EC50 [6]?
**A.** Its EC50 is > 120 µM (not active).

**Q.** And the EC50 [7]?
**A.** Its EC50 is > 120 µM (not active).

**Q.** For `Cc1ccc(OCCC(=O)O)cc1`, which IC50 [1] is on record?
**A.** The IC50 was > 47.1 µM (inactive).

**Q.** What about the EC50 [2] of the same molecule?
**A.** The EC50 was > 53 µM (inactive).
